According to patent US11827628B2, “Compositions and methods for inhibition of the JAK pathway” (Rigel Pharmaceuticals, Inc., priority 2005, dated 2023):

How the values were obtained:
[1] = test system: Primary human T-cells; assay: Primary Human T-Cell Proliferation Assay Stimulated with IL-2 (CellTiter-Glo); type: cell-based; conditions: primary human T-cell proliferation stimulated with IL-2; read-out: IC50, Example 42
Method in brief: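 IC50 derived from CellTiter-Glo ATP signal after 72 hours of IL-2-driven proliferation at 37° C. Cells: primary human T-cells from blood, stimulated beforehand 3-4 days on anti-CD3/anti-CD28 with IL-2, then rested from IL-2 before compound exposure in duplicate; IL-2-free wells served as unstimulated control.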

[2] = test system: IL-4 stimulated expression of CD23 in human Ramos B cells (JAK-1 and JAK-3); assay: Assay for Ramos B-Cell Line Stimulated with IL-4 (CD23 upregulation, FACS); type: cell-based; conditions: Ramos B-cell line stimulated with IL-4; CD23 expression by FACS; read-out: IC50, Example 41
Method in brief: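 Compound effect on IL-4-driven JAK1/JAK3 signalling is gauged as CD23 surface expression, measured by FACS after 20-24 h of stimulation with IL-4 at 50 units/mL final. A 1 h compound pre-treatment at 37 °C precedes stimulation, and IC50 is derived from the results.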

SMILES | IC50 [1] [nM] | IC50 [2] [nM]
Cc1nc(COc2ccc(Nc3nc(Nc4ccc(S(N)(=O)=O)cc4)ncc3F)cc2)no1 [Compound I-275, N2-(4-Aminosulfonyl)phenyl-5-fluoro-N4-[4-(5-methyl-1,2,4-oxadiazol-3-yl)methoxy]phenyl-2,4-pyrimidinediamine] | 577 | 223
Cc1nc(COc2ccc(Nc3nc(Nc4cccc(S(N)(=O)=O)c4)ncc3F)cc2)no1 [Compound I-276, N2-(3-Aminosulfonyl)phenyl-5-fluoro-N4-[4-(5-methyl-1,2,4-oxadiazol-3-yl)methoxy]phenyl-2,4-pyrimidinediamine] | 106 | 135
Cc1nnc(COc2ccc(Nc3nc(Nc4cccc(S(N)(=O)=O)c4)ncc3F)cc2)o1 [Compound I-277, N2-(3-aminosulfonylphenyl)-5-fluoro-N4-[4-(5-methyl-1,3,4-oxadiazol-2-yl)methyleneoxyphenyl]-2,4-pyrimidinediamine] | 91.5 | 151
Cc1nnc(COc2ccc(Nc3nc(Nc4ccc(F)c(S(N)(=O)=O)c4)ncc3F)cc2)o1 [Compound I-278, N2-(3-Aminosulfonyl-4-fluorophenyl)-5-fluoro-N4-[4-(5-methyl-1,3,4-oxadiazol-2-yl)methyleneoxyphenyl]-2,4-pyrimidinediamine] | 412 | 193
Cc1nc(COc2ccc(Nc3nc(Nc4ccc(C)c(S(N)(=O)=O)c4)ncc3F)cc2)cs1 [Compound I-280, N2-(3-Aminosulfonyl-4-methylphenyl)-5-fluoro-N4-[4-(2-methylthiazol-4-yl)methyleneoxyphenyl]-2,4-pyrimidinediamine] | 978 | 145
Cc1nc(COc2ccc(Nc3nc(Nc4cccc(S(N)(=O)=O)c4)ncc3F)cc2)cs1 [Compound I-281, N2-(3-Aminosulfonylphenyl)-5-fluoro-N4-[4-(2-methylthiazol-4-yl)methyleneoxyphenyl]-2,4-pyrimidinediamine] | 90.4 | 93.2
CNS(=O)(=O)c1cc(Nc2ncc(F)c(Nc3ccc(OCc4csc(C)n4)cc3)n2)ccc1C [Compound I-282, 5-Fluoro-N2-[3-(N-methylaminosulfony)-4-methylphenyl]-N4-[4-(2-methylthiazol-4-yl)methyleneoxyphenyl]-2,4-pyrimidinediamine] | 697 | 339
CCN(CC)CCNS(=O)(=O)c1cccc(Nc2ncc(F)c(Nc3ccc(OCc4csc(C)n4)cc3)n2)c1 [Compound I-283, N2-[3-(2-N,N-Diethylaminoethyl)aminosulfonylphenyl)-5-fluoro-N4-[4-(2-methylthizol-4-yl)methyleneoxyphenyl]-2,4-pyrimidinediamine] | 362 | 518
CCN(CC)CCNS(=O)(=O)c1ccc(Nc2ncc(F)c(Nc3ccc(OCc4csc(C)n4)cc3)n2)cc1 [Compound I-284, N2-[4-(2-N,N-Diethylaminoethyl)aminosulfonylphenyl)-5-fluoro-N4-[4-(2-methylthizol-4-yl)methyleneoxyphenyl]-2,4-pyrimidinediamine] | 421 | 136
Cc1nc(COc2ccc(Nc3nc(Nc4ccc(S(N)(=O)=O)cc4)ncc3F)cc2)cs1 [Compound I-285, N2-(4-Aminosulfonylphenyl)-5-fluoro-N4-[4-(2-methylthiazol-4-yl)methyleneoxyphenyl]-2,4-pyrimidinediamine] | 314 | 133
CN1CCC(Oc2ccc(Nc3nc(Nc4cccc(S(N)(=O)=O)c4)ncc3F)cc2)C1 (stereo not drawn) [II-9, N2-(3-Aminosulfonylphenyl)-5-fluoro-N4-(N-methylpyrrolidin-3-yloxyphenyl)-2,4-pyrimidinediamine] | 1320 | 232
Cc1ccc(Nc2ncc(F)c(Nc3ccc(OC4CCN(C)C4)cc3)n2)cc1S(N)(=O)=O (stereo not drawn) [II-10, N2-(3-Aminosulfonyl-4-methylphenyl)-5-fluoro-N4-(N-methylpyrrolidin-3-yloxyphenyl)-2,4-pyrimidinediamine] | 876 | 369
